Experiment [1] concerns E. tenella lectin. Briefly: Hemagglutination inhibition assay, lectin of E. tenella sporozoite lysate (rabbit erythrocytes). The experiment is classed as biochemical, Eimeria tenella. Particulars: minimum concentration inhibiting 4 hemagglutination units of lectin; 2% rabbit erythrocytes, room temperature, 60 minutes. An excerpt:
(§1) The lectin activity is preferably determined by a hemagglutination assay of rabbit erythrocytes. It is desirably performed in "U" well microtiter plates using lysates prepared from the parasites of interest. The sporozoites of the parasite of interest are washed three times in phosphate buffered saline (PBS), and adjusted to a concentration of 1×10^7 /ml. They are lysed by sonication in "Branson" sonicator; cleared of particulate material by filtration; and assayed for lectin activity using a conventionally known hemagglutination assay. In this assay, 2% rabbit erythrocytes in PBS are added to serial doubling dilutions of the prepared test lysate in PBS containing 2 mg/ml of bovine serum albumin (BSA) and incubated at 23° C. (i.e., room temperature) for 1 hour. Lectin titer is defined as the reciprocal of the highest agglutinating dilution as determined by direct observation, which is defined as one agglutinating unit.
(§2) Sugar specificity and characterization is determined by a standard hemagglutination inhibition assay. 2% rabbit erythrocytes are added to serial doubling dilutions of the sugar-comprising test compound in PBS containing 2 mg/ml BSA and 4 hemagglutination units of lectins; followed by incubation at room temperature for 60 minutes. The minimum inhibitory concentration of the test compound is defined as the minimum concentration which is required for inhibiting 4 hemagglutination units of lectins. The following represent examples of suitable test compounds: (1) glycoproteins such as fetuine, bovine submaxillary mucin, hog gastric mucin, and -1- acid glycoprotein; (2) monosaccharides such as arabinose, fucose, glucose, galactose, mannose, N-acetylglucosamine, and N-acetylgalactosamine and their derivatives; and (3) oligosaccharides including chitobiose and chitotetrose.

For experiment [2], the system named is E. acervulina lectin. Description: Hemagglutination inhibition assay, lectin of E. acervulina sporozoite lysate (rabbit erythrocytes). The format is biochemical, Eimeria acervulina. Conditions: minimum concentration inhibiting 4 hemagglutination units of lectin; 2% rabbit erythrocytes, room temperature, 60 minutes.
Text: as §1, §2

Experiment [3] concerns E. maxima lectin. Briefly: Hemagglutination inhibition assay, lectin of E. maxima sporozoite lysate (rabbit erythrocytes). The format is biochemical, Eimeria maxima. Conditions: minimum concentration inhibiting 4 hemagglutination units of lectin; 2% rabbit erythrocytes, room temperature, 60 minutes.
Text: as §1
Sugar specificity and characterization is determined by a standard hemagglutination inhibition assay. 2% rabbit erythrocytes are added to serial doubling dilutions of the sugar-comprising test compound in PBS containing 2 mg/ml BSA and 4 hemagglutination units of lectins; followed by incubation at room temperature for 60 minutes. […]

The subject of experiment [4] is E. tenella. Briefly: Inhibition of E. tenella development in cell culture (3H uracil uptake, Schmatz et al.). The experiment is classed as cell-based, Eimeria tenella. Conditions: for Scintillation Counts (24 hr), Trial 1 / Scintillation Counts (24 hr), Trial 2: 96 hours development, mean of eight cultures. The protocol:
A series of experimental assays were performed to measure the in vitro inhibition of Coccidia infections by compositions comprising at least one sugar. The inhibition assay is one developed by Schmatz et al. [J. Protozology 33:109-114 (1986)] in which inhibition of sporozoite development is correlated with a decrease in ^3 H uracil uptake by the host cells.
Sporozoites are excysted aseptically from sterile coccidis oocysts, cleaned of debris by passage through a cellulose or glass wool column, counted, and diluted to a concentration of approximately 2.5×10^5 sporozoites per ml.
(§3) The sporozoites are then pretreated for one hour in cell culture nutrient (Waymouth's MAB 87/3, without serum) containing various concentration of inhibiting sugars, such as 0.1, 1.0, and 10.0 mg/ml fetuine, before being inoculated onto 24-48 hour primary cultures of embryonic chick kidney cells prepared in 24 or 96 well plates. Treatment with the inhibiting sugar, such as fetuine, is continuous at the tested concentration during the incubation period, allowing the parasite development to proceed for 48 or 96 hours. Nutrient is changed every 48 hours. Because parasites developing in cell culture, but not the host cells, take up ^3 H uracil, add 2 u Ci to each well in a 96 well plate 18 to 24 hours beore counting by liquid scintillation. Nutrient is removed from the parasitized cell cultures which are then treated with PBS solution, pH 7.6-7.8, containing 0.5% trypsin and 0.022% EDTA to detach the cells from the culture vessel, and harvested with a PHD Cell Harvester (Cambridge Instrument) onto glass fiber filter discs. Individual discs are placed into scintillation vials with 3.5 ml Toluene (plus 5.262 grams per 4 liters of PPO [2,5-diphenyloxazole]) and samples are then counted in a Beckman scintillation counter.

Experiment [5] concerns embryonic chick kidney cells. Description: 3H uracil counts of host cells with fetuin, no parasite. Particulars: Host Cells + 15 mg/ml Fetuin, mean of eight cultures. The experiment is classed as cell-based. The protocol:
as §3

Where [6] appears, read: Host Cells + Parasite + 5 mg/ml Fetuin.
Where [7] appears, read: Host Cells + Parasite + 10 mg/ml Fetuin.
Where [8] appears, read: Host Cells + Parasite + 15 mg/ml Fetuin.

`CC(=O)N[C@H]1[C@H](O[C@H]2[C@H](O)[C@@H](NC(C)=O)C(O)O[C@@H]2CO)O[C@H](CO)[C@@H](O[C@@H]2O[C@H](CO)[C@@H](O[C@@H]3O[C@H](CO)[C@@H](O)[C@H](O)[C@H]3NC(C)=O)[C@H](O)[C@H]2NC(C)=O)[C@@H]1O` (stereo partly drawn) [Chitotetrose]: in experiment [1], the “Lowest Concentration that Inhibited Lectin Agglutination, E. tenella” value stood at 0.03 mg/mL.

Turning to Acid Glycoprotein, the “Lowest Concentration that Inhibited Lectin Agglutination, E. acervulina” value in experiment [2] was 0.5 mg/mL. In addition, the “Lowest Concentration that Inhibited Lectin Agglutination, E. tenella” value in experiment [1] came out at 1.25 mg/mL.

Regarding `COC1O[C@H](CO)[C@@H](O)[C@H](O)[C@H]1O` (stereo partly drawn) [1-o-CH3 -D-Glucoside], in experiment [1], the “Lowest Concentration that Inhibited Lectin Agglutination, E. tenella” value is 4.1 mg/mL.

As to Chitobiose, the “Lowest Concentration that Inhibited Lectin Agglutination, E. tenella” value in experiment [1] came to 1.25 mg/mL.

`O=C[C@@H](O)[C@H](O)[C@H](O)CO` [Arabinose]: in experiment [2], the “Lowest Concentration that Inhibited Lectin Agglutination, E. acervulina” value was 25.0 mg/mL.

As for Hog Gastric Mucin, the “Lowest Concentration that Inhibited Lectin Agglutination, E. acervulina” value in experiment [2] amounted to 0.5 mg/mL. Moreover, in experiment [1], the “Lowest Concentration that Inhibited Lectin Agglutination, E. tenella” value was 0.125 mg/mL.

Regarding `C[C@@H]1OC(O)[C@@H](O)[C@H](O)[C@@H]1O` (single isomer, unassigned) [L(-)-Fucose], the “Lowest Concentration that Inhibited Lectin Agglutination, E. tenella” value in experiment [1] is 1.25 mg/mL.

As to `O=[N+]([O-])c1ccc(OC2O[C@H](CO)[C@@H](O)[C@H](O)[C@H]2O)cc1` (stereo partly drawn) [P-Nitro-o-D-Glucoside], in experiment [1], the “Lowest Concentration that Inhibited Lectin Agglutination, E. tenella” value stood at 12.5 mg/mL.

For “Bovine Submaxillary Mucin [Bovine Submaxillary Mucin (BSM)]”, the “Lowest Concentration that Inhibited Lectin Agglutination, E. acervulina” value in experiment [2] came to 0.03 mg/mL. Moreover, the “Lowest Concentration that Inhibited Lectin Agglutination, E. tenella” value in experiment [1] was found to be 0.083 mg/mL.

B1: Fetuin (protein, UniProt P12763 19-359, looked up)
Alpha-2-HS-glycoprotein: IPLDPVAGYKEPACDDPDTEQAALAAVDYINKHLPRGYKHTLNQIDSVKVWPRRPTGEVYDIEIDTLETTCHVLDPTPLANCSVRQQTQHAVEGDCDIHVLKQDGQFSVLFTKCDSSPDSAEDVRKLCPDCPLLAPLNDSRVVHAVEVALATFNAESNGSYLQLVEISRAQFVPLPVSVSVEFAVAATDCIAKEVVDPTKCNLLAEKQYGFCKGSVIQKALGGEDVRVTCTLFQTQPVIPQPQPDGAEAEAPSAVPDAAGPTPSAAGPPVASVVVGPSVVAVPLPLHRAHYDLRHTFSGVASVESSSGEAFHVGKTPIVGQPSIPGGPVRLCPGRIRYFKI
notes: glycoprotein
With B1, in experiment [2], the “Lowest Concentration that Inhibited Lectin Agglutination, E. acervulina” value worked out at 0.13 mg/mL. Also, in experiment [1], the “Lowest Concentration that Inhibited Lectin Agglutination, E. tenella” value worked out at 0.078 mg/mL. Besides, the “Lowest Concentration that Inhibited Lectin Agglutination, E. maxima” value in experiment [3] amounted to 0.4 mg/mL. In addition, the “Scintillation Counts (24 hr), Trial 1” value in experiment [4] (setting [6]) is 8,135.0; in experiment [4] (setting [7]), 8,625.6; in experiment [4] (setting [8]) it was 4,328.3; in experiment [5] it was 7,826.4. For the same molecule, the “Scintillation Counts (24 hr), Trial 2” value in experiment [4] (setting [6]) is reported as 1,394.7; in experiment [4] (setting [7]), 1,556.4; in experiment [4] (setting [8]), 796.1; in experiment [5], 1,942.7. The “3H uracil uptake, inhibition of E. tennella development (in words)” value in experiment [4] (summary of Table E2) is recorded as “substantial reductions”.

Source of the values: patent publication US5141925A, “Vivo methods for treating coccidiosis” (Trustees of Tufts College, priority 1990, dated 1992).
